Experimental findings from PMC3482212, “Autoinducers Act as Biological Timers in Vibrio harveyi” (PLoS ONE, 2012) are described below.

SMILES strings stand for the structures.

One assay addresses LuxN (Vibrio campbellii, UniProt A7MRY4). Put plainly: biochemical. Conditions: read-out: % inhibition at 10 μM.
For assay [1], the target named is T1, LuxPQ (LuxQ in interplay with LuxP) (Vibrio harveyi, UniProt P54300).
T1 construct: full-length wild-type LuxQ with C-terminal His6 in inverted membrane vesicles of E. coli TKR2000 (pNKQ); read-out phosphorylation of purified His6-LuxU; with Autoinducer 2 sensor kinase/phosphatase LuxQ
T1 sequence (P54302 whole entry): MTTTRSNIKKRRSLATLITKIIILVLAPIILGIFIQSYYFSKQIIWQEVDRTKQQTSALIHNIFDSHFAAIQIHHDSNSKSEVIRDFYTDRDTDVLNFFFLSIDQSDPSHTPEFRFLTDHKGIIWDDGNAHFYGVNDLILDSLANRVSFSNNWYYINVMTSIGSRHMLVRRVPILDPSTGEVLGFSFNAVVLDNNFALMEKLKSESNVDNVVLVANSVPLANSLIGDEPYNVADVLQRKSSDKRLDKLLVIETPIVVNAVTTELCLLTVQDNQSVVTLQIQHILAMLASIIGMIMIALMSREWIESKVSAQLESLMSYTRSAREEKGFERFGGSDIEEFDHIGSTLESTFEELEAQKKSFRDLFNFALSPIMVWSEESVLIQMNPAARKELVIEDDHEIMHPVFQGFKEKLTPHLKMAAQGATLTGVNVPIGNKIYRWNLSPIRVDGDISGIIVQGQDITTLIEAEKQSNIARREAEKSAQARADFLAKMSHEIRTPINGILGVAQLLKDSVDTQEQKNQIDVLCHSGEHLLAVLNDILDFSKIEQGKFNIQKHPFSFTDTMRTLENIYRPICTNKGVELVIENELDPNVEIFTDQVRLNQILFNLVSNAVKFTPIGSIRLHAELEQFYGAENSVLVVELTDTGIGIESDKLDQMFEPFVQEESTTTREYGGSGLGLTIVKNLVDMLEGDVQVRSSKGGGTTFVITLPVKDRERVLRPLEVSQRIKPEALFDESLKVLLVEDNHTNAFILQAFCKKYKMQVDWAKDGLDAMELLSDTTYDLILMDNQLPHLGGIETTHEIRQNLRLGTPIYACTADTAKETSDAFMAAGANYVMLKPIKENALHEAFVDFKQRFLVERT
T1 sequence (P54300 24-365): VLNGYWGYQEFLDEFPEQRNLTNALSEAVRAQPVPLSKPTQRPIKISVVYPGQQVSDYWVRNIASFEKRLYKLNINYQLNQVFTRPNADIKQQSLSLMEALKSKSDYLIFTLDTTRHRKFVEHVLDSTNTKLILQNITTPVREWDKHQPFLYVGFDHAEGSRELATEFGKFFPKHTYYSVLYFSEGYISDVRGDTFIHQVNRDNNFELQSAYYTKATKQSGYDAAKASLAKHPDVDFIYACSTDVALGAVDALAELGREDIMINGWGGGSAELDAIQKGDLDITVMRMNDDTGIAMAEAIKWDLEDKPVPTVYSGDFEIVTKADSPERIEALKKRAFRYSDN
In words: inhibition of LuxU phosphorylation by [gamma-32P]ATP, membrane vesicles, SDS-PAGE autoradiography. The assay is classed as biochemical. The settings on record: read-out: half-maximal inhibition.

LuxN, sequence (A7MRY4 whole entry): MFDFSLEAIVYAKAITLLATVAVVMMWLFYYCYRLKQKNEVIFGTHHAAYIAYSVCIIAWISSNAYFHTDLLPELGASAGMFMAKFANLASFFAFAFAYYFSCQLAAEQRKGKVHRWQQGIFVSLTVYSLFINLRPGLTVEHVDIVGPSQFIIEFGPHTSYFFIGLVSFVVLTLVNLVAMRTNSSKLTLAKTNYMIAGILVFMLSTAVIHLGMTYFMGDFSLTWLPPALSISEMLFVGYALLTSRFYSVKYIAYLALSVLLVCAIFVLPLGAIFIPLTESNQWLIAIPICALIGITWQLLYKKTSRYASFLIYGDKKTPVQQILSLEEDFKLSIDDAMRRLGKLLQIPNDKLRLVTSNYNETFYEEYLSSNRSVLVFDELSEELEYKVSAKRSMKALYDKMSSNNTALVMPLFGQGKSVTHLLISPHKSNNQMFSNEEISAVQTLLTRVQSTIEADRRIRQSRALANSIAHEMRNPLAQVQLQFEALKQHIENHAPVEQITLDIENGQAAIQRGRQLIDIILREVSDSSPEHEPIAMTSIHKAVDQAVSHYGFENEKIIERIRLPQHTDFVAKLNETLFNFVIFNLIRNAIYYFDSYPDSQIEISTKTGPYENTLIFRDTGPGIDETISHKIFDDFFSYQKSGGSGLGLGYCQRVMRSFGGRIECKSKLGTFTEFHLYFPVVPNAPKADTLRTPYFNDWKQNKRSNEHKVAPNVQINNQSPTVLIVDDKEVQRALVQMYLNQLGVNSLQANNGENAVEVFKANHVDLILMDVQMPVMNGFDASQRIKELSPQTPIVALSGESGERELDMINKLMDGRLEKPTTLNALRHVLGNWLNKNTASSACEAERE

As usually defined, the inhibition is how much of the control response was suppressed. As to `C[C@@H](O)CC(=O)N[C@H]1CCOC1=O` [HAI-1, N-(3-hydroxybutyryl)-homoserine lactone], the inhibition at 10 µM on LuxN worked out at 57%. Regarding `C[C@]12OC[C@H](O)[C@@]1(O)O[B-](O)(O)O2` [AI-2], in assay [1], the IC50 was determined as 5 µM.
